From publication PMC7075946 (Frontiers in Immunology, 2020)
pEC50: −log10 of the molar value.

Columns and labels:
human PBMCs = experiment: Human PBMC intracellular cytokine staining (flow cytometry); type: cell-based; details: for frequency of mDC producing IL-12p40 / frequency of classical monocytes producing IL-12p40: 1 h plus 5 h GolgiPlug
Protocol: Human blood was obtained from healthy adult donors through a University of Montana Institutional Review Board (IRB)-approved protocol. PBMCs were separated from whole blood via density gradient separation using Histopaque 1,077 (Sigma). For PBMC-based assays, cells were resuspended at the desired cell concentration in complete media (RPMI1640+10% FBS+antibiotics). Cells were treated with the indicated compound concentrations and stimulated for 6–24 h depending on the assay as indicated in the figure legends and assays outlined below.
For flow cytometry analysis of innate cytokines, PBMCs were stimulated with indicated concentration of compound for 1 h followed by 5 h incubation with GolgiPlug (BD, 1 μL/mL) at 37°C. Post-stimulation, cells were harvested and surface stained with viability dye, and monoclonal antibodies targeting CD3 AF700 (Tonbo Bioscience, UCHT1), CD19 AF700 (Tonbo Bioscience, HIB19), CD56 AF700 (Biolegend, 5.1H11), HLA-DR BV785 (Biolegend, L243), CD14 APC-Cy7 (Biolegend, 63D3), CD16 PE-Dazzle594 (Biolegend, 3G8), CD11c BV421 (Biolegend, 3.9), and CD123 APC (Biolegend, 6H6). Following fixation and permeabilization with BD Cytofix/Cytoperm buffers, cells were stained with monoclonal antibodies targeting the intracellular cytokines IL-12p40 PE (a shared IL-12 and IL-23 subunit, Biolegend, C11.5), IL-6 FITC (Biolegend MQ2-13A5), IL-4 BV605 (Biolegend, MP4-25D2), and LAP (TGF-β) PE Cy7 [latency-associated peptide ([55]), Biolegend TW4-2F8]. Data were collected using an LSRII flow cytometer (BD) and analyzed using FlowJo 10.0 software (TreeStar).
Figure 7 Lipidated imidazoquinolines elicit T cell polarizing cytokines primarily from APCs. PBMCs from 6 healthy, adult blood donors were stimulated with 2 μM indicated TLR7/8, TLR4, or combination TLR4 + TLR7/8 agonists. After 1 h, brefeldin A (GolgiPlug) was added and cells were incubated for a further 5 h. Cells were then harvested and stained with surface antibodies for phenotyping, fixed and permeablized and stained with antibodies to detect intracellular cytokines. (A) Frequency of IL-12/IL-23+ cells, (B) frequency of IL-6+ cells, (C) frequency of TGFβ (LAP)+ cells, and (D) frequency of IL-4+ cells.

mouse TLR7 = target: T1, mouse TLR7 (Mus musculus, UniProt P58681); experiment: cell-based
T1 sequence (P58681 27-1050): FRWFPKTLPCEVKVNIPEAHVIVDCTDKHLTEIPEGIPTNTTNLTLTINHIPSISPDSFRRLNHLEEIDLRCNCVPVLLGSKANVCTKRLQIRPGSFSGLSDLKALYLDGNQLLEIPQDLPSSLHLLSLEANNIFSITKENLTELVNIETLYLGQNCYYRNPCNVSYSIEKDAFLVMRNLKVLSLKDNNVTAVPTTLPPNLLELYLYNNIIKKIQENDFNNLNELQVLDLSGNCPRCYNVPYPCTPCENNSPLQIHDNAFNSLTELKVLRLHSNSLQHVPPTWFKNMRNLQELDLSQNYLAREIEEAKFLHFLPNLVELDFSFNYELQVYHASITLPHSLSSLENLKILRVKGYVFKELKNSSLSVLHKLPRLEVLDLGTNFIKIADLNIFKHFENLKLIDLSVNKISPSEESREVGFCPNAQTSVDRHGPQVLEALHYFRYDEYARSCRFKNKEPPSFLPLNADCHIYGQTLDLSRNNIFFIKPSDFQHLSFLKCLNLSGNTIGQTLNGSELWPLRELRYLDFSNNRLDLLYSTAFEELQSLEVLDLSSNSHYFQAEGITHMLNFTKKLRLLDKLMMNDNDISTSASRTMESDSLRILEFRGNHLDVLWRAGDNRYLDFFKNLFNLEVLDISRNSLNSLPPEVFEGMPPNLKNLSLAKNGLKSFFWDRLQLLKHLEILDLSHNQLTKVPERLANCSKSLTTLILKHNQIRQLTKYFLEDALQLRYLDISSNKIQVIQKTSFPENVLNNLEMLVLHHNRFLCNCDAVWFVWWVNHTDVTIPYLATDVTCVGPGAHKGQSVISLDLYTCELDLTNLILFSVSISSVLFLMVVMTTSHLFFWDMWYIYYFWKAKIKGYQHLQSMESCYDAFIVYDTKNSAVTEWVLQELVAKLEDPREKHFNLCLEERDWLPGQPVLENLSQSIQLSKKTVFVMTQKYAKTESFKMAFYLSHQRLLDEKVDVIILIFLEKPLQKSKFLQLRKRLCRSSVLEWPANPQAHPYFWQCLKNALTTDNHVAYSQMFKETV

Row | Compound | frequency of mDC producing IL-12p40 (human PBMCs; 2 μM) | frequency of mDC and classical monocytes expressing TGFβ (LAP) (human PBMCs; compound alone, 2 μM) | frequency of mDC and classical monocytes expressing TGFβ (LAP) (human PBMCs; in combination with CRX-601, 2 μM) | pEC50 (mouse TLR7) | frequency of classical monocytes producing IL-12p40 (human PBMCs; 2 μM)
1 | CCCCc1nc2c(N)nc3ccccc3c2n1CCO [UM-3001] | approximately 20% | low frequencies | low frequencies | 6.32 | –
2 | CCCCCCCCCCCCCCCC(=O)OC[C@H](COCCOCCOCCOP(=O)(O)OCCn1c(CCCC)nc2c(N)nc3ccccc3c21)OC(=O)CCCCCCCCCCCCCCC [UM-3003] | Lower frequencies | – | – | 4.90 | Lower frequencies
3 | CCCCCCCCCCCCCCCC(=O)OC[C@H](COCCOCCOCCOCCOCCOCCOP(=O)(O)OCCn1c(CCCC)nc2c(N)nc3ccccc3c21)OC(=O)CCCCCCCCCCCCCCC [UM-3004] | Lower frequencies | – | – | 6.07 | Lower frequencies
4 | CCCCCCCC/C=C\CCCCCCCC(=O)OC[C@H](COP(=O)(O)OCCc1ccc2c(c1)nc(N)c1nc(CCCC)n(CCO)c12)OC(=O)CCCCCCC/C=C\CCCCCCCC [UM-3005] | approximately 20% | – | – | 5.94 | approximately 20%
